From US10981908B2, “Aryl hydrocarbon receptor (AHR) modulator compounds” (PHENEX PHARMACEUTICALS AG, priority 2017, dated 2021) come the findings set out here.

This assay has as its target T1, AhR (Homo sapiens, UniProt P35869).
T1 construct: The HepG2 CYP1A1-Luc cells do express basal luciferase activity that can be increased via potent AhR agonists or decreased via potent AhR antagonists; endogenous in cells
T1 sequence (P35869 11-848): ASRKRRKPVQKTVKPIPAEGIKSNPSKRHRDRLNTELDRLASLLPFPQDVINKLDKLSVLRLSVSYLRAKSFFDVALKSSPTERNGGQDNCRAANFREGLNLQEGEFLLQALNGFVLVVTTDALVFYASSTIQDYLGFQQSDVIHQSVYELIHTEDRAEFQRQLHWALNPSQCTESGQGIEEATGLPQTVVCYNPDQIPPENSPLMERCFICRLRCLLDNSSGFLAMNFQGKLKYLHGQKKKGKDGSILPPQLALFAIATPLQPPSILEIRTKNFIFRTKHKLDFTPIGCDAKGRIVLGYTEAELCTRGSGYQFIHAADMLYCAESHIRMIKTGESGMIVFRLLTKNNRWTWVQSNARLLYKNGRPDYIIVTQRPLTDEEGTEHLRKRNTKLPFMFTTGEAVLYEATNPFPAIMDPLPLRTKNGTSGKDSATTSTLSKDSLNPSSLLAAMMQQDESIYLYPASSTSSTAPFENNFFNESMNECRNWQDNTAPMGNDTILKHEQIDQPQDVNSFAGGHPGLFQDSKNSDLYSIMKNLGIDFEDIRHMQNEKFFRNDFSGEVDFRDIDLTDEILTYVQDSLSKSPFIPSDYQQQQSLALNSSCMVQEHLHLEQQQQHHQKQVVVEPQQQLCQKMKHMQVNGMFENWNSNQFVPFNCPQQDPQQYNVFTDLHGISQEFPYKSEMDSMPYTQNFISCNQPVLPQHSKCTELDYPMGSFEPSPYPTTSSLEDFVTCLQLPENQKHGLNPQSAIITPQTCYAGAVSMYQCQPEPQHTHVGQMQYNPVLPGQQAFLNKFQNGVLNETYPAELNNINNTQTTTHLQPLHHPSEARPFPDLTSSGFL
Briefly: AhR direct luciferase reporter assay in HepG2 cells (HepG2 CYP1A1-LUC). The assay is classed as cell-based. Conditions: luciferase activity after 18 hours, medium with no exogenous AhR agonist or 10 nM VAF347, read-out: AhR potency (AhR antagonistic potency, IC50 class). The source says:
AhR Direct Luciferase Reporter Assay in HepG2 Cells
A stable cell line (HepG2 CYP1A1-LUC) was used in which part of the promoter region of the human CYP1A1 gene is stably integrated into the genome of human HepG2 hepatocytes (DSZM #ACC 180) in front of a Photinus pyralis Firefly Luciferase gene. A 1210 bp fragment comprising part of the human CYP1A1 promoter was isolated via SacI and BgIII restriction digestion from Lightswitch Clone S714555 (SwitchGearGenomics) and inserted between the SacI and BgIII sites in pGL4.30 (Promega #E8481) in front of the Firefly Luciferase gene. The resulting vector was linearized with NotI, transfected into HepG2 cells (DSMZ #ACC 180) and stably transfected clones selected with 250 μg/ml Hygromycin B. After repetitive rounds of subcloning and testing for robustly regulated luciferase activity after AhR agonist stimulation, a stable clonal HepG2 CYP1A1-Luc cell line was selected.
The HepG2 CYP1A1-Luc cells do express basal luciferase activity that can be increased via potent AhR agonists or decreased via potent AhR antagonists, added to the growth medium of the cells.
In typical reporter assays performed with this cell line, cells are grown in 96-well plates and AhR modulators are titrated into the growth medium in serial dilutions in RPMI-1640 Medium (Sigma #R7509) supplemented with 8,6% fetal calf serum (Sigma #F7524) and containing either no exogenous AhR agonist or 10 nM of the potent AhR agonist VAF347 (Calbiochem #182690). Cells are further cultivated for 18 hours and luciferase activities are determined from extracts of cells in buffers containing D-Luciferine and ATvP using a LUMIstar Optima microplate Luminometer from BMG Labtech.
On the technique in general: In a reporter assay the amount or activity of a reporter protein is the signal.

In general, IC50 refers to the concentration that inhibits the measured activity by half.

As for `CCn1ncnc1C(=O)Nc1ccc2cc(-c3ccccc3C(F)F)[nH]c2n1` [4/7], the IC50 is less than 100 nM.
To `O=C(Nc1ccc2cc(-c3ccccc3C(F)(F)F)[nH]c2n1)c1ccc(F)cc1` [Example 1/9, 4-Fluoro-N-(2-(2-(trifluoromethyl)phenyl)-1H-pyrrolo[2,3-b]pyridin-6-yl)benzamide] belongs less than 100 nM; to `Cc1scnc1C(=O)Nc1ccc2cc(-c3ccccc3C(F)F)[nH]c2n1` [5/2], less than 100 nM; to `Cn1ncnc1C(=O)Nc1ccc2cc(-c3ccccc3C(=O)O)[nH]c2n1` [Example 6, 2-(6-(1-Methyl-1H-1,2,4-triazole-5-carboxamido)-1H-pyrrolo[2,3-b]pyridin-2-yl)benzoic acid], greater than 1000 nM.
With `Cn1ncnc1C(=O)Nc1ccc2cc(-c3cc(F)ccc3C(F)F)[nH]c2n1` [Example 4/9, N-(2-(2-(difluoromethyl)-5-fluorophenyl)-1H-pyrrolo[2,3-b]pyridin-6-yl)-1-methyl-1H-1,2,4-triazole-5-carboxamide], the IC50 was less than 100 nM.
For the compound `Cc1nonc1C(=O)Nc1ccc2cc(-c3ccccc3C(F)(F)F)[nH]c2n1` [Example 1/20, 4-Methyl-N-(2-(2-(trifluoromethyl)phenyl)-1H-pyrrolo[2,3-b]pyridin-6-yl)-1,2,5-oxadiazole-3-carboxamide], the IC50 was less than 100 nM.
As for `Cn1ncnc1C(=O)Nc1ccc2cc(-c3cc(C#N)ccc3C(F)(F)F)[nH]c2n1` [4/8], the IC50 is less than 100 nM.
In the case of `Cn1ncnc1C(=O)Nc1ccc2cc(-c3cc(C4CC4)ccc3C(F)(F)F)[nH]c2n1` [Example 1/27, N-(2-(5-Cyclopropyl-2-(trifluoromethyl)phenyl)-1H-pyrrolo[2,3-b]pyridin-6-yl)-1-methyl-1H-1,2,4-triazole-5-carboxamide], the IC50 was less than 100 nM.
To `Cn1nccc1C(=O)Nc1ccc2cc(-c3cccnc3C(F)(F)F)[nH]c2n1` [Example 1/3, 1-Methyl-N-(2-(2-(trifluoromethyl)pyridin-3-yl)-1H-pyrrolo[2,3-b]pyridin-6-yl)-1H-pyrazole-5-carboxamide] belongs 100 to 1000 nM; to `Cc1cc2cc(-c3ccccc3C(F)(F)F)[nH]c2nc1NC(=O)c1ncnn1C` [Example 1/31, 1-Methyl-N-(5-methyl-2-(2-(trifluoromethyl)phenyl)-1H-pyrrolo[2,3-b]pyridin-6-yl)-1H-1,2,4-triazole-5-carboxamide], 100 to 1000 nM; to `Cn1cncc1C(=O)Nc1ccc2cc(-c3ccccc3C(F)F)[nH]c2n1` [Example 5, N-(2-(2-(Difluoromethyl)phenyl)-1H-pyrrolo[2,3-b]pyridin-6-yl)-1-methyl-1H-imidazole-5-carboxamide], 100 to 1000 nM.
In the case of `Cn1ncnc1C(=O)Nc1ccc2cc(-c3cc(Cl)ccc3C(F)F)[nH]c2n1` [Example 1/34, N-(2-(5-Chloro-2-(difluoromethyl)phenyl)-1H-pyrrolo[2,3-b]pyridin-6-yl)-1-methyl-1H-1,2,4-triazole-5-carboxamide], the IC50 is less than 100 nM.
In the case of `Cn1ncnc1C(=O)Nc1ccc2cc(-c3cc(C(F)(F)F)ccc3C(F)(F)F)[nH]c2n1` [Example 1/30, N-(2-(2,5-Bis(trifluoromethyl)phenyl)-1H-pyrrolo[2,3-b]pyridin-6-yl)-1-methyl-1H-1,2,4-triazole-5-carboxamide], the IC50 was less than 100 nM.
To `Cn1ncnc1C(=O)Nc1ccc2cc(-c3ccc(C(=O)O)cc3)[nH]c2n1` [Example 12/1, 4-(6-(1-Methyl-1H-1,2,4-triazole-5-carboxamido)-1H-pyrrolo[2,3-b]pyridin-2-yl)benzoic Acid] belongs greater than 1000 nM.
As to `Cn1ncnc1C(=O)Nc1ccc2cc(-c3ccccc3C(F)(F)F)n(C)c2n1` [Example 3, 1-Methyl-N-(1-methyl-2-(2-(trifluoromethyl)phenyl)-1H-pyrrolo[2,3-b]pyridin-6-yl)-1H-1,2,4-triazole-5-carboxamide], the IC50 lay within 100 to 1000 nM.
To `CCc1ccc(C(F)(F)F)c(-c2cc3ccc(NC(=O)c4ncnn4C)nc3[nH]2)c1` [Example 1/29, N-(2-(5-Ethyl-2-(trifluoromethyl)phenyl)-1H-pyrrolo[2,3-b]pyridin-6-yl)-1-methyl-1H-1,2,4-triazole-5-carboxamide] belongs less than 100 nM.
To `Cn1ncnc1C(=O)Nc1ccc2cc(-c3ccoc3C(F)F)[nH]c2n1` [Example 1/32, N-(2-(2-(Difluoromethyl)furan-3-yl)-1H-pyrrolo[2,3-b]pyridin-6-yl)-1-methyl-1H-1,2,4-triazole-5-carboxamide] belongs less than 100 nM.
As for `O=C(Nc1ccc2cc(-c3ccccc3C(F)(F)F)[nH]c2n1)c1ccccc1F` [Example 1/8, 2-Fluoro-N-(2-(2-(trifluoromethyl)phenyl)-1H-pyrrolo[2,3-b]pyridin-6-yl)benzamide], the IC50 was less than 100 nM.
To `Cn1ncnc1C(=O)Nc1ccc2cc(-c3ccccc3C(F)F)[nH]c2n1` [Example 1/15, N-(2-(2-(Difluoromethyl)phenyl)-1H-pyrrolo[2,3-b]pyridin-6-yl)-1-methyl-1H-1,2,4-triazole-5-carboxamide] belongs less than 100 nM; to `Cn1ncnc1C(=O)Nc1ccc2cc(-c3cccc4c3CCC4)[nH]c2n1` [Example 1/16, N-(2-(2,3-Dihydro-1H-inden-4-yl)-1H-pyrrolo[2,3-b]pyridin-6-yl)-1-methyl-1H-1,2,4-triazole-5-carboxamide], less than 100 nM; to `O=C(Nc1ccc2cc(-c3ccccc3C(F)(F)F)[nH]c2n1)c1ncc2ccccn12` [Example 1/22, N-(2-(2-(trifluoromethyl)phenyl)-1H-pyrrolo[2,3-b]pyridin-6-yl)imidazo[1,5-a]pyridine-3-carboxamide], less than 100 nM.
To `Cc1ccc(C(F)F)c(-c2cc3ccc(NC(=O)c4ncnn4C)nc3[nH]2)c1` [Example 1/35, N-(2-(2-(Difluoromethyl)-5-methylphenyl)-1H-pyrrolo[2,3-b]pyridin-6-yl)-1-methyl-1H-1,2,4-triazole-5-carboxamide] belongs less than 100 nM; to `Cn1cnnc1C(=O)Nc1ccc2cc(-c3ccccc3C(F)(F)F)[nH]c2n1` [Example 1/21, 4-Methyl-N-(2-(2-(trifluoromethyl)phenyl)-1H-pyrrolo[2,3-b]pyridin-6-yl)-4H-1,2,4-triazole-3-carboxamide], 100 to 1000 nM.
To `Cn1ncnc1C(=O)Nc1ccc2cc(-c3ccc(C(F)F)cc3)[nH]c2n1` [Example 1/25, N-(2-(4-(Difluoromethyl)phenyl)-1H-pyrrolo[2,3-b]pyridin-6-yl)-1-methyl-1H-1,2,4-triazole-5-carboxamide] belongs less than 100 nM.
For the compound `Cn1ncnc1C(=O)Nc1ccc2cc(-c3cccc(F)c3C(F)(F)F)[nH]c2n1` [Example 1/11, N-(2-(3-Fluoro-2-(trifluoromethyl)phenyl)-1H-pyrrolo[2,3-b]pyridin-6-yl)-1-methyl-1H-1,2,4-triazole-5-carboxamide], the IC50 was less than 100 nM.
As for `Cc1ccccc1-c1cc2ccc(NC(=O)c3ccnn3C)nc2[nH]1` [Example 1, 1-Methyl-N-(2-(o-tolyl)-1H-pyrrolo[2,3-b]pyridin-6-yl)-1H-pyrazole-5-carboxamide], the IC50 is less than 100 nM.
To `Cn1ncnc1C(=O)Nc1ccc2cc(-c3ccccc3S(C)(=O)=O)[nH]c2n1` [Example 1/23, 1-Methyl-N-(2-(2-(methylsulfonyl)phenyl)-1H-pyrrolo[2,3-b]pyridin-6-yl)-1H-1,2,4-triazole-5-carboxamide] belongs greater than 1000 nM; to `Cn1nccc1C(=O)Nc1ccc2cc(-c3cccc(C(F)(F)F)c3)[nH]c2n1` [Example 1/2, 1-Methyl-N-(2-(3-(trifluoromethyl)phenyl)-1H-pyrrolo[2,3-b]pyridin-6-yl)-1H-pyrazole-5-carboxamide], 100 to 1000 nM.
